The first test addresses T1, human AR (Homo sapiens, UniProt P10275).
T1 construct: expressed in transfected cells; host or cells: COS-1 cells
T1 sequence (P10275 1-920): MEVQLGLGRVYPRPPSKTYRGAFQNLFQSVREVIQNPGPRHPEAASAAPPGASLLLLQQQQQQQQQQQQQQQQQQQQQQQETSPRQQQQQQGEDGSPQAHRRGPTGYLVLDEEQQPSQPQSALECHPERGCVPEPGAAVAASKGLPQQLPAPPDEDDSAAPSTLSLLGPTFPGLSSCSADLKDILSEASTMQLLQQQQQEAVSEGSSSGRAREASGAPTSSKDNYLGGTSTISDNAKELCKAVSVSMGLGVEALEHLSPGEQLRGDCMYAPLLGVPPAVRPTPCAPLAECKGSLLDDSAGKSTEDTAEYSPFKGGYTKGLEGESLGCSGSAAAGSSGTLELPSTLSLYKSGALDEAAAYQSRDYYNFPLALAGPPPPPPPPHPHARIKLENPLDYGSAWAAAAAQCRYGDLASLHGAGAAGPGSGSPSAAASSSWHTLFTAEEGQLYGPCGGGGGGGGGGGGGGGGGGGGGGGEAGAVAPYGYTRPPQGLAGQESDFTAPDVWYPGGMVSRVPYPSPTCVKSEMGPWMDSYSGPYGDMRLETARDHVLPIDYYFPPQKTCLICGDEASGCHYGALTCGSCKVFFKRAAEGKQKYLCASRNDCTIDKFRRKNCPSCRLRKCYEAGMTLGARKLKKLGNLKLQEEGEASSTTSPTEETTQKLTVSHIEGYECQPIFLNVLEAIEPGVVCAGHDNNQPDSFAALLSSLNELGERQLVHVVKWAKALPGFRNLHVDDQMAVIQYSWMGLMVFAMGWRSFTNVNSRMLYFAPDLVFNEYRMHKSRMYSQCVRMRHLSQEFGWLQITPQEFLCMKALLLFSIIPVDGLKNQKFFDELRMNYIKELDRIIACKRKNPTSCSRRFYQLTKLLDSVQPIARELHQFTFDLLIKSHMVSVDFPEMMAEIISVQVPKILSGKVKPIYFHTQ
The experiment in a line: IR Binding Assay: whole cell competitive binding of test compounds against 3H-DHT in COS-1 cells transfected with pRShAR.
Conditions: not given
The gist of the method:
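COS-1 cells transfected with pRShAR plus β-Gal reporter, serum-starved 24 h, then exposed to 1 nM ³H-DHT with compounds at 10^−10 to 10^−6 M for 3 h at 37 °C. Bound ³H-DHT counted in lysates, normalized to β-Gal. IC50 from log-logit plot; Ki via Cheng-Prusoff using Kd from Scatchard saturation analysis.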
On to `CCCc1c(C)[nH]c2ccc3[nH]c(=O)cc(Cl)c3c12` [Compound 124, 9-Chloro-2-methyl-1-propyl-3,6-dihydro-pyrrolo[3,2-f]quinolin-7-one], for which the Ki is > 10 nM.

On to `Cc1c(-c2ccccc2)n(CC(F)(F)C(F)(F)F)c2ccc3[nH]c(=O)cc(Cl)c3c12` [Compound 218, 9-Chloro-1-methyl-3-(2,2,3,3,3-pentafluoropropyl)-2-phenyl-3,6-dihydro-pyrrolo[3,2-f]-quinolin-7-one], for which the Ki was < 5 nM.

With `Cc1c(-c2ccccc2)n(CC(F)(F)F)c2ccc3[nH]c(=O)cc(Cl)c3c12` [Compound 187, 9-Chloro-1-methyl-2-phenyl-3-(2,2,2-trifluoroethyl)-3,6-dihydro-pyrrolo[3,2-f]quinolin-7-one], the Ki was < 5 nM.

As for `Cc1c(-c2cccs2)n(C[C@@H](O)C(F)(F)F)c2ccc3[nH]c(=O)cc(Cl)c3c12` [Compound 282, (R)-9-Chloro-1-methyl-2-thiophen-2-yl-3-(3,3,3-trifluoro-2-hydroxy-propyl)-3,6-dihydro-pyrrolo[3,2-f]quinolin-7-one], the Ki is < 5 nM.

For the compound `CCN1CC(C)c2c1ccc1[nH]c(=O)cc(Cl)c21` (racemic) [Compound 134, (±)-9-Chloro-3-ethyl-1-methyl-1,2,3,6-tetrahydro-pyrrolo[3,2-f]quinolin-7-one], the Ki is < 5 nM.

With `Cc1c(-c2ccncc2)n(CC(F)(F)C(F)(F)F)c2ccc3[nH]c(=O)cc(Cl)c3c12` [Compound 263, 9-Chloro-1-methyl-3-(2,2,3,3,3-pentafluoropropyl)-2-(4-pyridyl)-3,6-dihydro-pyrrolo[3,2-f]quinolin-7-one], the inhibitory constant (Ki) is < 5 nM.

Turning to `Cc1c(-c2cccnc2)n(CC(F)(F)C(F)(F)F)c2ccc3[nH]c(=O)cc(Cl)c3c12` [Compound 264, 9-Chloro-1-methyl-3-(2,2,3,3,3-pentafluoropropyl)-2-(3-pyridyl)-3,6-dihydro-pyrrolo[3,2-f]quinolin-7-one], the Ki is < 5 nM.

As to `Cc1c(-c2ncco2)n(CC(F)(F)C(F)(F)F)c2ccc3[nH]c(=O)cc(Cl)c3c12` [Compound 266, 9-Chloro-1-methyl-2-(oxazol-2-yl)-3-(2,2,3,3,3-pentafluoropropyl)-3,6-dihydro-pyrrolo[3,2-f]quinolin-7-one], the Ki is < 5 nM.

Consider `Cc1c(C)n(CCC(C)(C)O)c2ccc3[nH]c(=O)cc(C(F)(F)F)c3c12` [Compound 239, 3-(3-Hydroxy-3-methyl-butyl)-1,2-dimethyl-9-trifluoromethyl-3,6-dihydro-pyrrolo[3,2-f]-quinolin-7-one], for which the Ki was > 10 nM.

Consider `CC1c2c(ccc3[nH]c(=O)cc(Cl)c23)N(C)C1C` (racemic) [Compound 136, (±)-9-Chloro-1,2,3-trimethyl-1,2,3,6-tetrahydro-pyrrolo[3,2-f]quinolin-7-one], for which the Ki is > 10 nM.

For `CC(C)=Cn1c(C)c(C)c2c3c(C(F)(F)F)cc(=O)[nH]c3ccc21` [Compound 238, 1,2-Dimethyl-3-(2-methylprop-1-enyl)-9-trifluoromethyl-3,6-dihydro-pyrrolo[3,2-f]-quinolin-7-one], the Ki is < 5 nM.

Regarding `CCn1c(C)c(C)c2c3c(Cl)cc(=O)[nH]c3ccc21` [Compound 196, 9-Chloro-1,2-dimethyl-3-ethyl-3,6-dihydro-pyrrolo[3,2-f]quinolin-7-one], the Ki is < 5 nM.

On to `Cc1c(CO)n(CC(F)(F)F)c2ccc3[nH]c(=O)cc(C(F)(F)F)c3c12` [Compound 235, 2-Hydroxymethyl-1-methyl-3-(2,2,2-trifluoro-ethyl)-9-trifluoromethyl-3,6-dihydro-pyrrolo[3,2-f]-quinolin-7-one], for which the inhibitory constant (Ki) is > 10 nM.

In turn, `CC1c2c(ccc3[nH]c(=O)cc(Cl)c23)N(CC(C)(C)C)C1C` (racemic) [Compound 141, (±)-9-Chloro-1,2-dimethyl-3-(2,2-dimethylpropyl)-1,2,3,6-tetrahydro-pyrrolo[3,2-f]quinolin-7-one] came in with a Ki of 5 to 10 nM.

Turning to `CCc1[nH]c2ccc3[nH]c(=O)cc(Cl)c3c2c1C` [Compound 106, 9-Chloro-2-ethyl-1-methyl-3,6-dihydro-pyrrolo[3,2-f]quinolin-7-one], the Ki was 5 to 10 nM.

With `O=c1cc(Cl)c2c3c(ccc2[nH]1)N(CC(F)(F)F)[C@H]1CCC[C@@H]31` [Compound 163, (−)-9-Chloro-3-(2,2,2-trifluoroethyl)-1,2-trimethylene-1,2,3,6-tetrahydropyrrolo[3,2-f]-quinolin-7-one], the Ki was > 10 nM.

Turning to `CCCN1c2ccc3[nH]c(=O)cc(Cl)c3c2C(C)C1C` (racemic) [Compound 137, (±)-9-Chloro-1,2-dimethyl-3-propyl-1,2,3,6-tetrahydro-pyrrolo[3,2-f]quinolin-7-one], the Ki is < 5 nM.

Turning to `Cc1c(C)n(CC(O)CO)c2ccc3[nH]c(=O)cc(C(F)(F)F)c3c12` (centres unmarked) [Compound 293, 3-(2,3-dihydroxypropyl)-1,2-dimethyl-9-trifluoromethyl-3,6-dihydro-pyrrolo[3,2-f]-quinolin-7-one], the Ki is > 10 nM.

As for `O=c1cc(Cl)c2c3c(ccc2[nH]1)N(CC(F)(F)F)[C@@H]1CCC[C@H]31` [Compound 162, (+)-9-Chloro-3-(2,2,2-trifluoroethyl)-1,2-trimethylene-1,2,3,6-tetrahydropyrrolo[3,2-f]quinolin-7-one], the inhibition constant Ki is < 5 nM.

As for `Cc1c(-c2nccs2)n(CC(F)(F)F)c2ccc3[nH]c(=O)cc(Cl)c3c12` [Compound 252, 9-Chloro-1-methyl-2-(1,3-thiazol-2-yl)-3-(2,2,2-trifluoroethyl)-3,6-dihydro-pyrrolo[3,2-f]-quinolin-7-one], the Ki was < 5 nM.

Take `CC1c2c(ccc3[nH]c(=O)cc(Cl)c23)N(CC(F)(F)F)C1c1cccc([N+](=O)[O-])c1` (racemic) [Compound 154, (±)-9-Chloro-1-methyl-2-(3-nitrophenyl)-3-(2,2,2-trifluoroethyl)-1,2,3,6-tetrahydro-pyrrolo[3,2-f]quinolin-7-one]: the inhibition constant (Ki) is > 10 nM.

In the case of `Cc1c(C)n(CC(F)(F)Cl)c2ccc3[nH]c(=O)cc(Cl)c3c12` [Compound 212, 9-Chloro-3-(2-chloro-2,2-difluoroethyl)-1,2-dimethyl-3,6-dihydro-pyrrolo[3,2-f]quinolin-7-one], the Ki is < 5 nM.

On to `Cc1c(C)n(CC(F)(F)C(F)(F)C(F)(F)F)c2ccc3[nH]c(=O)cc(Cl)c3c12` [Compound 214, 9-Chloro-1,2-dimethyl-3-(2,2,3,3,4,4,4-heptafluorobutyl)-3,6-dihydro-pyrrolo[3,2-f]-quinolin-7-one], for which the inhibition constant (Ki) was > 10 nM.

Turning to `Cc1c(-c2cccs2)n(C[C@H](O)C(F)(F)F)c2ccc3[nH]c(=O)cc(Cl)c3c12` [Compound 272, (S)-9-Chloro-1-methyl-2-thiophen-2-yl-3-(3,3,3-trifluoro-2-hydroxy-propyl)-3,6-dihydro-pyrrolo[3,2-f]quinolin-7-one], the Ki was < 5 nM.

Staying with this test, now noted: competition with 1 nM 3H-DHT, transfected COS-1 cells, 3 h at 37° C., Cheng-Prusoff from IC50; read-out: Ki.
Take `CCOC(=O)c1[nH]c2ccc3[nH]c(=O)cc(Cl)c3c2c1C` [Compound 111, 9-Chloro-1-methyl-7-oxo-6,7-dihydro-3H-pyrrolo[3,2-f]quinoline-2-carboxylic acid ethyl ester]: the Ki was > 10 nM.

As for `Cc1c(-c2cccs2)[nH]c2ccc3[nH]c(=O)cc(Cl)c3c12` [Compound 120, 9-Chloro-1-methyl-2-thien-2-yl-3,6-dihydro-pyrrolo[3,2-f]quinolin-7-one], the inhibition constant Ki is > 10 nM.
